Reference: patent US20220354852A1, “TARGETING WNT SIGNALING FOR IMPROVED GLIOMA IMMUNOTHERAPY” (CITY OF HOPE, priority 2021, published 2022)
Entries after “also recorded” stand apart in the source; their conditions may differ.

Experiments:
[1] = biological target: β-catenin/CBP interaction (Homo sapiens, UniProt Q92793); settings: cited from earlier work
[2] = test system: PBT017 and PBT106 derived lines that express high levels of the tumor antigen HER2; assay: In vitro co-culture cytotoxicity assay, HER2-CAR T cells ± ICG-001; type: cell-based, human
Protocol: (§1) FIG. 2. Combinational strategy of CAR T cell-mediated tumor-antigen targeting with ICG-001 induced differentiation in glioma. […] (B) Cytotoxicity of HER2 CAR-T cells and tumor cells (1:5 ratio) was enhanced by ICG-001 at concentrations 1.25-5 μM. (C) Treatment of PBT138 patient glioma tumors with CAR T IL13Rα2+/−ICG-001.
(§2) FIG. 11. (A, B) Growth kinetics of human PBT glioma lines (PBT017, PBT030, PBT135, PBT144, and PBT147) treated with ICG-001 (0-10 μM) for 7 days and (C) mouse glioma cells (GL261, GL261-IL13, and K-luc) treated with ICG-001 (0-10 μM) for 4 days. Red boxes indicate PBT030 and PBT147 cell lines used for Nanostring and proteomics analysis. Scale bars represent S.D. of triplicate samples. (D-F) Growth kinetics of PBT017 (2,500 cells/well) treated with or without HER2-CAR T cells (500 cells/well) and with or without ICG-001 (0-5 μM). The red line is CAR T cell treatment only and the bottom three lines are with ICG-001. Experiment was done in quadruplicate and error bars indicate S.D.
FIG. 13 illustrates data resulting from the combination of ICG001 and CAR T cells toxicity in vitro using 2000 cells to start and 4 days (96-well Endpoint—cell count) according to certain embodiments.
FIG. 14 illustrates data resulting from the Combination of ICG001 and CAR T cells toxicity in vitro using 1000 cells to start and 4 days (96-well Endpoint—cell count) according to certain embodiments.
(§3) It has also been observed that ICG-001-induced differentiation of PBT017 and PBT138 (data not shown).
Next, the efficacy of a titrated dose of CAR T cells±ICG-001 to induce tumor cell killing in vitro was tested (FIG. 11D-F). The combination of HER2-engineered CAR T (HER2-CAR T) cells and IGC-001 was evaluated using in vitro co-culture assays.

[3] = test system: interferon-y regulated chemokines CXCL9-11 in the TME; assay: Orthotopic syngeneic murine hepatocellular carcinoma model (qRT-PCR, IHC); type: in vivo; settings: qRT-PCR, previously demonstrated
Source text: (§4) CXCL9 and CXCL10, are produced mainly by BATF3 dendritic cells that are required for Teff trafficking. The CXCL9, CXCL10, CXCL11/CXCR3 signaling axis is critical for activated T-helper type 1 (Th1), cytotoxic T-cell (CTL), and natural killer (NK) cell recruitment immune cell recruitment in vivo. A similar effect resulting from ICG-001 is likely, such as increased CD8^+T-cell infiltration into brain tumors (FIG. 3B).

[4] = as above; type: in vivo; settings: IHC, minimally 10 fields counted
Source text: as §4

[5] = test system: Wnt target genes BIRC5/Survivin and EphB2; assay: Quantitative RT-PCR of Wnt target genes in human glioma cell lines; type: cell-based
Protocol: (§5) FIG. 15. Expression of target genes post-ICG-001 treatment (0-10 μM) by RT-PCR using (A-C) mouse Survivin in GL261-IL13, GL261, and K-luc cells. (D) Survivin in PBT147 human glioma cells. (E, F) Luciferase reporter assay indicating downregulation of Survivin/BIRC5 in PBT017 and PBT030 cell lines.
(§6) FIG. 16 is a table showing the expression of the target genes survivin/BIRC5 post-ICG-001 treatment ([…]) as detected by RT-PCR and Luciferase Reporter Assay.
(§7) ICG-001 differentially affects the expression of the Wnt target genes BIRC5/Survivin and EphB2 in vitro. […] The effects of ICG-001 on Wnt/CBP/β-catenin signaling were further confirmed using a Survivin-luciferase reporter assay (FIG. 15). ICG-001's selective effects on the expression of Survivin and EphB2 may serve as indicators of ICG-001 on target tissue activity in vivo (FIG. 16) and a readout for pharmacokinetics/pharmacodynamics (PK/PD) as used previously in clinical trials with the second-generation CBP/β-catenin specific antagonist PRI-724 (Anthony et al. 2013).

[6] = Tran and Zheng 2017; cited from earlier work
KIF20A = assay: qRT-PCR of KIF20A in PBT147 and PBT030 cells; type: cell-based, human
Protocol: (§8) ICG-001 activity in vitro in human and mouse glioma cell lines. Initially, the effects of the specific CBP/β-catenin antagonist ICG-001 was tested in vitro as a single agent on human and mouse glioma cell lines (5 PBT human and 3 mouse glioma lines).

[7] = test system: tumor cell glycolytic activity; settings: previously shown; cited from earlier work
[8] = test system: PBT138 patient tumor-derived glioma cells; assay: In vitro cytotoxicity assay, IL13Rα2-CAR T cells ± ICG-001; type: cell-based, human
Protocol: as §1, §3

[9] = test system: human patient-derived glioma (PBT017, PBT030, PBT135, PBT144, and PBT147); assay: ICG-001 single agent on human patient-derived glioma cell lines (growth kinetics, morphology); type: cell-based
Protocol: as §1, §2
PBT tumor cells lines are patient derived tumors dissociated and grown in DMEM/F12 medium, supplemented with heparin, hepes, glutamax and B27. EFG and FGF is added at the time of the culture as described previously (Brown et al. 2009). ICG-001 was kindly provided by another laboratory.
In vitro experiments. Co-culture assay of PBT cell lines grown as described above and seeded to 100,000 cells/2 ml in 6 well plates. ICG-001 is added to the cell culture in concentrations […] for 24-72 h, as described previously (Brown et al. 2013).
as §8

[10] = test system: Survivin/BIRC5 (Wnt/CBP/β-catenin signaling); assay: Survivin-luciferase reporter assay; type: cell-based, human; settings: PBT017 and PBT030 cell lines
Protocol: as §5, §6, §7

Sequence of β-catenin/CBP interaction (Q92793 whole entry): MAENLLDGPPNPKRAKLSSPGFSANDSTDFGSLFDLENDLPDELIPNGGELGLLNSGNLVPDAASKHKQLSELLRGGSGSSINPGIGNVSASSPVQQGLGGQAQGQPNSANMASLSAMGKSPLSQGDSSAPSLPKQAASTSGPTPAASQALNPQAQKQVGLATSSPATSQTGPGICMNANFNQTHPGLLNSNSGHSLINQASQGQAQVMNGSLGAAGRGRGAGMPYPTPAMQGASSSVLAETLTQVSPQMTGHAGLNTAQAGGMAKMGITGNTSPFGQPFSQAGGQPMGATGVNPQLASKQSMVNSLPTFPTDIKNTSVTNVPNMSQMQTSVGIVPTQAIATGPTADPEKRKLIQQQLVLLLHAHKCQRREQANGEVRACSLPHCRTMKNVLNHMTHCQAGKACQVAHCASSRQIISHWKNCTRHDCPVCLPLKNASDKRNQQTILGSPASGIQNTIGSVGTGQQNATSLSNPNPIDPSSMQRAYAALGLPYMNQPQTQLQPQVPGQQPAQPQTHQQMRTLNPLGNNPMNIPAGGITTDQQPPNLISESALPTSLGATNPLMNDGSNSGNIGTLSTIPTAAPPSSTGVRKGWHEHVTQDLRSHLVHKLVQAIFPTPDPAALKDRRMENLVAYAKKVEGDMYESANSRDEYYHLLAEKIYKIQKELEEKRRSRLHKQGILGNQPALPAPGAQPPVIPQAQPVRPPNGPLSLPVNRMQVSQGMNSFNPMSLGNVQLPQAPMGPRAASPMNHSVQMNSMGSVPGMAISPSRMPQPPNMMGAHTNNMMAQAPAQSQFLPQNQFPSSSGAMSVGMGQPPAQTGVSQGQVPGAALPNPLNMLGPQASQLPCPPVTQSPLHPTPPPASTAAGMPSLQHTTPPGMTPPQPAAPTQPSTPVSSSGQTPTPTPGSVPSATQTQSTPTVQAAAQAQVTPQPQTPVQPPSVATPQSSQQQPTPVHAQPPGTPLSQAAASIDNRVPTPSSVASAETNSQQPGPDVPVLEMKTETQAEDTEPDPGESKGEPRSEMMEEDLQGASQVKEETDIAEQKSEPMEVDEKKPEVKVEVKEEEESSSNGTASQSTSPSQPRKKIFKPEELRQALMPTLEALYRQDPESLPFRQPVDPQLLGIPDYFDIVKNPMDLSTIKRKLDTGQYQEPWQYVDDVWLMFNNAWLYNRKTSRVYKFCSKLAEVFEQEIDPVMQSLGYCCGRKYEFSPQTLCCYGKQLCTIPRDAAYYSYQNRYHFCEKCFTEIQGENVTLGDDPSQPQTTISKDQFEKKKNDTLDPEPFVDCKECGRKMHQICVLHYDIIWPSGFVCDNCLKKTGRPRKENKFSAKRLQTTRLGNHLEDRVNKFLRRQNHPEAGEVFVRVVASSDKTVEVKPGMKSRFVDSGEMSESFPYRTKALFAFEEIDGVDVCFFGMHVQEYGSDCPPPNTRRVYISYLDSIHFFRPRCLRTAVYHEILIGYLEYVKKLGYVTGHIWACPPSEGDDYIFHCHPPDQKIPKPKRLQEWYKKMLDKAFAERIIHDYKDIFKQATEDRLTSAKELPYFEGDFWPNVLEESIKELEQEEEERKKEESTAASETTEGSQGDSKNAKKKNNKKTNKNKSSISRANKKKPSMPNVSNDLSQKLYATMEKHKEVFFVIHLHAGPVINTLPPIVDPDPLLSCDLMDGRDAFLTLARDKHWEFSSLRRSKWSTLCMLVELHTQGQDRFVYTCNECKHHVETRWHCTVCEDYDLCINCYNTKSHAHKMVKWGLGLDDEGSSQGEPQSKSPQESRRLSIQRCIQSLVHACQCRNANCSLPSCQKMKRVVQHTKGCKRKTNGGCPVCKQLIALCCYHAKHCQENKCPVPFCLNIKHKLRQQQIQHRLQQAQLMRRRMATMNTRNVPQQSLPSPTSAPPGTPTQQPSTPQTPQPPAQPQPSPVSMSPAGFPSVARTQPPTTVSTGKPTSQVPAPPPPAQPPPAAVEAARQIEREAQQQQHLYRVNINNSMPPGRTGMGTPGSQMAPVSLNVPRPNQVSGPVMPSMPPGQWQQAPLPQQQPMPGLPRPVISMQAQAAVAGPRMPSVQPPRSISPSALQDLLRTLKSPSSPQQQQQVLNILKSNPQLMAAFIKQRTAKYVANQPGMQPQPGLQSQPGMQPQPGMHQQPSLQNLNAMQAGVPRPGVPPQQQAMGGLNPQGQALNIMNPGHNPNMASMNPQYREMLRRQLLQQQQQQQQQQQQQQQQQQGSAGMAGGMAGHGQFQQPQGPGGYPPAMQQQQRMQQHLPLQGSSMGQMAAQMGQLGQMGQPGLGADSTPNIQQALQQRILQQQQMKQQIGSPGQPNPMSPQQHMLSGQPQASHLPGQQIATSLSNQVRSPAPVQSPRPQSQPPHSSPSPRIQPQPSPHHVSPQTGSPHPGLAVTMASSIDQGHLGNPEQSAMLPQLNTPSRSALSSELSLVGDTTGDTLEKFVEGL

## O=C1[C@H](Cc2ccc(O)cc2)N2C(=O)CCN(C(=O)NCc3ccccc3)[C@H]2CN1Cc1cccc2ccccc12 [ICG-001]
[1]
  blockade of β-catenin/CBP versus β-catenin/p300 interaction: selectively blocks the β-catenin/CBP interaction without interfering with the β-catenin/p300 interaction
[2]; CAR-T cells and tumor cells 1:5 ratio, ICG-001 1.25-5 μM
  cytotoxicity of HER2 CAR-T cells: enhanced
[2]; HER2-CAR T cells + ICG-001, effector: target cell ratios of 1:5 and 1:10
  tumor cell killing at given effector: target cell ratios: Enhanced killing
[2]; PBT017 (and PBT106) lines, ICG-001 0-5 μM
  tumor cell killing, ICG-001 in combination with HER2-CAR T cells: synergistic cytotoxicity; also recorded: synergistic killing
[2]; Tumor[PBT106.eGFP]: CAR T [Her2] cells in ratios (1:2; 1:2, 1:4)
  killing by CAR T cells of ICG-001-treated tumor cells: improved killing by CAR T cells
[3]
  expression of interferon-y regulated chemokines CXCL9-11 in the TME: significantly increased; also recorded: increased the expression
[4]
  CD8+ T cell infiltration into the tumor microenvironment: increased CD8+ T cell infiltration
[5]
  expression of Wnt/p300/β-catenin target gene EphB2: upregulating
[5]; ICG-001 0-10 μM
  expression of Wnt/CBP/β-catenin target gene BIRC5/Survivin: selectively downregulated
[6]
  blood-brain barrier crossing: cross the blood-brain barrier
KIF20A
  KIF20A expression: decreased expression of KIF20A
[7]
  glycolytic activity and extracellular acidification of tumor cells: decrease in glycolytic activity and extracellular acidification
[8]
  tumor cell killing, ICG-001 in combination with IL13Rα2-CAR T cells: synergistic killing
[9]; ICG-001 0-10 μM, 7 days, PBT017, PBT030, PBT135, PBT144, PBT147
  effect on cell growth (growth kinetics): concentration dependent cytostatic effect
[9]; ICG-001 0.75-10 μM, PBT017
  differentiation and growth of PBT017 glioma cells: differentiation and cell growth arrest
[9]; all glioma lines, demonstrated with PBT017.RFP
  morphological phenotype: less proliferative and more differentiated phenotype
[10]
  Survivin/BIRC5 luciferase reporter activity: downregulation
